Experimental data published in patent US20230324392A1, “METHODS AND COMPOSITIONS FOR TARGETING CYTOSOLIC DSDNA SIGNALING IN CHROMOSOMALLY UNSTABLE CANCERS” (MEMORIAL SLOAN KETTERING CANCER CENTER, priority 2020, published 2023).

Tests used:
[1] = target: T1, STING (Mus musculus, UniProt Q3TBT3); assay: ISG expression in cGAMP-transfected Cgas-KO 4T1 cells with or without C-176; format: cell-based; settings: in the presence of C-176
T1 construct: endogenous in cells; host or cells: Cgas-KO 4T1 cells (mouse mammary carcinoma; parental line from ATCC)
T1 sequence (Q3TBT3 1-378): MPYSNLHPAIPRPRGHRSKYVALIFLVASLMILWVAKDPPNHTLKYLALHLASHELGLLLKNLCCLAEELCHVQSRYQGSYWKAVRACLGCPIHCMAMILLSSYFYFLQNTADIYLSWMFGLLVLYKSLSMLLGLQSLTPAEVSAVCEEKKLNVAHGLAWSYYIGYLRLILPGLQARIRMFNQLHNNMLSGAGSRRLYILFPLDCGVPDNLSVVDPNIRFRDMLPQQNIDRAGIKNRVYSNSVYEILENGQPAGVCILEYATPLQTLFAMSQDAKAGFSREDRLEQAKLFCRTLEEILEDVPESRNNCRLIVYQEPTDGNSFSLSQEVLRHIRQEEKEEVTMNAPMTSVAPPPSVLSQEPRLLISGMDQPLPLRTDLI
Procedure: Quantitative PCR for STING inhibition study: RNA was extracted from cells with Trizol (Invitrogen, Carlsbad, CA, #15596026). cDNA was synthesized using the RNA to cDNA EcoDry™ Premix (Double Primed) kit (Takara #639549). Real-time PCR was performed to measure the relative mRNA expression levels of ISGs and the control GAPDH using Luna® Universal qPCR Master Mix (NEB, IPSWICH, MA, M3003L). The qPCR reaction and analysis were performed on a QuantStudio 6 platform (Life technology, Carlsbad, CA). The sequence of primers for Ccl5 is 5′-[sequence]-3′ and 5′-[sequence]-3′. […] The sequence for primers for Gapdh is 5′-[sequence]-3′ and 5′-[sequence]-3′.

[2] = target: T2, murine STING isoform (Mus musculus, UniProt Q3TBT3); assay: Immunoblots of phosphorylated p65, RelB and IRF3 in C-176 treated tumor cells; format: cell-based
T2 construct: endogenous in cells
T2 sequence (Q3TBT3 1-378): T1 sequence (Q3TBT3 1-378)
Procedure: Immunoblotting: Cells were pelleted and lysed using RIPA buffer. Protein concentration was determined using BCA protein assay and 20-30 μg total protein were loaded in each lane. Proteins were separated by gradient SDS-PAGE and transferred to PVDF or nitrocellulose membranes. See Table 2 for antibody information. Membranes were imaged using the LI-COR Odyssey software. Relative STING protein levels were quantified by measuring band intensities on immunoblots using Image J software, background was subtracted and normalized to loading control. […] Cells were washed with ice-cold PBS and harvested using radio-immunoprecipitation assay (RIPA) lysis buffer containing protease and phosphatase inhibitors (Roche, Basel, Switzerland). Cells were lysed with a probe sonicator for 20 s. Protein quantification was performed using Pierce™ Rapid Gold BCA Protein Assay Kit (Thermo Fisher Scientific, Waltham, MA). Proteins were reduced at 95° C. for 5 mins with NuPAGE™ LDS Sample Buffer (4×) containing NuPAGE™ Sample Reducing Agent (10×). Lysates (40 μg protein/well) were resolved on NuPAGE™ 4-12% Bis-Tris Protein Gels (Invitro-gen) and transferred to polyvinylidene difluoride (PVDF) membranes (Thermo Fisher Scientific, Waltham, MA) using a wet transfer system. […] Images were captured by ChemiDoc Imaging Systems (Bio-Rad, UK) and densitometries were determined by ImageJ.

[3] = test system: B16F10, 4T1, and CT26 cells; assay: xCELLigence assay for cell invasion; format: cell-based, mouse; settings: C176 at 1 μM; all three metastatic cancer cell lines
Procedure: xCELLigence assayfor cell invasion: Assessment of the impact of STING inhibition on cell invasion was conducted using the xCELLigence system CIM plates (ACEA Biosciences, San Diego, CA). The upper chamber was coated with 1 mg/ml of growth factor complete Matrigel (#356234, Corning, UK) made up in serum free media (SFM) and incubated at 37° C. for 4 hours to allow polymerisation. A total of 4×10^4 cells in serum-free media were seeded into the upper chamber insert with C176 at 1 μM (Probechem, China) or DMSO control. The lower chamber was filled with complete media. The CIM plates were incubated at 1 hour at 37° C. and 5% C02 for cell attachment. Plates were then monitored using the xCELLigence system. Changes in impedance resulting from cell invasion to the underside of wells were recorded every 15 minutes and monitored for a total of 60 hours.

[4] = test system: CT26 cells; assay: Tail vein inoculation of CT26 cells in BALB/c mice, metastasis and survival; format: in vivo, mouse
Procedure: Animal metastasis studies: Animal experiments were performed in accordance with protocols approved by the MSKCC Institutional Animal Care and Use Committee. […] There was no need to randomize animals. Investigators were not blinded to group allocation. For tail vein injections, 5×10^4 4T1, 2.5×10^4 B16F10, or 10^5 CT26 cells were injected into the tail vein of 6-7-week old BALB/c (4T1 and CT26) or C57BL/6 (B16F10) mice. Metastasis was primarily assessed through overall survival. Overall survival endpoint was met when the mice died or met the criteria for euthanasia under the IACUC protocol. Animals were censored when death was confirmed to have occurred due to metastasis-unrelated causes such as injury or death during injection, surgery, or anesthesia. Surface lung metastases were assessed at endpoint by direct visual examination after euthanasia at which points lungs were perfused and fixed in 4% paraformaldehyde (4T1 and B16F10 experiments) or stained using India-ink (CT26 experiments). […] H-151 was reconstituted in DMSO with concentration of 100 mM. Each mouse was injected intraperitoneally with 7.5 μL of H-151 stock solution in 200 μL of PBS with 0.1% Tween −80.

[5] = test system: STING-KO B16F10 cells; assay: Tail vein inoculation of STING-KO B16F10 cells in C57BL/6 mice, survival; format: in vivo, mouse; settings: C57BL/6 mice inoculated with STING-KO B16F10 cells
Procedure: Animal metastasis studies: Animal experiments were performed in accordance with protocols approved by the MSKCC Institutional Animal Care and Use Committee. […] There was no need to randomize animals. Investigators were not blinded to group allocation. For tail vein injections, 5×10^4 4T1, 2.5×10^4 B16F10, or 10^5 CT26 cells were injected into the tail vein of 6-7-week old BALB/c (4T1 and CT26) or C57BL/6 (B16F10) mice. Metastasis was primarily assessed through overall survival. Overall survival endpoint was met when the mice died or met the criteria for euthanasia under the IACUC protocol. […] Surface lung metastases were assessed at endpoint by direct visual examination after euthanasia at which points lungs were perfused and fixed in 4% paraformaldehyde (4T1 and B16F10 experiments) or stained using India-ink (CT26 experiments). Furthermore, lung metastasis after injection of 4T1 cells was qualitatively assessed using routine hematoxylin and eosin (H&E) staining. […] Primary tumors were surgically excised on day 7 after implantation and metastatic dissemination was assessed by monitoring overall survival or on day 30 through quantification of surface lung metastases upon euthanasia. The length (L) and width (W) of the primary tumors were measured using calipers. Tumor size was calculated according to the following formula: L*W2/2. […]

[6] = test system: B16F10 cells; settings: 1 μM C-176, 48 hours
Procedure: RNA was extracted using the RNeasy Mini Kit (Qiagen, Hilden, Germany, 74104). Non-strand-specific paired end sequencing libraries were generated with TruSeq Stranded mRNA (Illumina, San Diego, CA, 20020594) and sequenced on the Illumina NovaSeq platform. Reads were mapped to the mouse reference GRCm38 with the Broad Picard Pipeline (broadinstitute.github.io/picard/). […] Differential analysis was performed by DESeq2 (v1.24.0) as described by Love, M. I., et al., Genome Biol. 15: 550 (2014), the totality of which is incorporated herein by reference. Gene set enrichment analysis was performed on the normalized reads estimated by DESeq2.

O=C(Nc1ccc(I)cc1)c1ccc([N+](=O)[O-])o1 [C-176]
effect on ISG induction by cGAMP transfection [1]: suppressed | phosphorylated pools of the NF-κB transcription factors p65 and RelB ([2]; baseline, B16F10, 4T1, CT26 cells): significant reductions | IRF3 phosphorylation ([2]; upon transfection of 20 μg/ml cGAMP): suppressed | invasion [3]: significant reductions | number of CT26 lung metastasis ([4]; 13 days after tail vein injection, daily IP): significant reduction | survival of tumor bearing mice ([4]; CT26, BALB/c, IP, vs vehicle): significantly prolonged survival | survival advantage beyond STING KO [5]: did not provide an additional survival advantage | baseline expression of inflammation-related genes (Ccl5, Cxcl10, Isg15) [6]: significant reductions | expression of STING-dependent genes [6]: significantly reduced | gene set enrichment analysis (GSEA) pathways [6]: downregulation of pathways related to inflammation and of genes involved in the epithelial-to-mesenchymal transition (EMT)
